Source: patent US20200225244A1, “COMPOSITIONS AND METHODS FOR ASSESSING PAINFUL DEMYELINATING AND NONDEMYELINATING DISEASES” (Sanford Burnham Prebys Medical Discovery Institute, priority 2017, published 2020)

Legend:
[1] = molecular target: T1, α2δ1 subunit of the voltage-gated Ca^2+ channel (Homo sapiens, UniProt P54289); conditions: animal studies; Ohashi et al. 2008; cited from earlier work
T1 construct: PD-217,014 produces visceral analgesic effects in animal studies

[2] = test system: gelatinolytic urinary MMPs; conditions: 20 mM EDTA; urine of CCI rats, day 0, 1 and 28
Procedure: The urine samples collected at day 0 (prior to injury) and days 1 and 28 post-CCI (n=4-6/group) were equilibrated in MMP buffer, pH 7.5 and then the protein concentrations were determined using the Bradford assay and made even by sample dilution in MMP buffer, pH 7.5. Dialyzed urine samples were analyzed by gelatin zymography. […] The urine samples collected at day 0 (CTR) and 28 post-CCI (CCI) (n=4-5/group) were equilibrated in MMP buffer, pH 7.5, and then the protein concentrations were determined using the Bradford assay. Dialyzed urine samples were co-incubated with the fluorescent Mca-PLGL-Dpa-AR-NH2 MMP substrate in the presence and the absence of GM6001, a broad-spectrum hydroxamate MMP inhibitor.
The dialyzed rat urine samples equilibrated in MMP buffer, pH 7.5, the crude nerve extracts and the MMP-9 samples isolated from sciatic nerve were analyzed by gelatin zymography in a 10% acrylamide-0.1% gelatin gel. […] Where indicated, gels were incubated in 20 mM EDTA to inactivate MMP activity.

female rats = conditions: single intra-neural injection into intact sciatic nerve, Liu et al. 2012; cited from earlier work

T1 sequence (P54289 25-1103): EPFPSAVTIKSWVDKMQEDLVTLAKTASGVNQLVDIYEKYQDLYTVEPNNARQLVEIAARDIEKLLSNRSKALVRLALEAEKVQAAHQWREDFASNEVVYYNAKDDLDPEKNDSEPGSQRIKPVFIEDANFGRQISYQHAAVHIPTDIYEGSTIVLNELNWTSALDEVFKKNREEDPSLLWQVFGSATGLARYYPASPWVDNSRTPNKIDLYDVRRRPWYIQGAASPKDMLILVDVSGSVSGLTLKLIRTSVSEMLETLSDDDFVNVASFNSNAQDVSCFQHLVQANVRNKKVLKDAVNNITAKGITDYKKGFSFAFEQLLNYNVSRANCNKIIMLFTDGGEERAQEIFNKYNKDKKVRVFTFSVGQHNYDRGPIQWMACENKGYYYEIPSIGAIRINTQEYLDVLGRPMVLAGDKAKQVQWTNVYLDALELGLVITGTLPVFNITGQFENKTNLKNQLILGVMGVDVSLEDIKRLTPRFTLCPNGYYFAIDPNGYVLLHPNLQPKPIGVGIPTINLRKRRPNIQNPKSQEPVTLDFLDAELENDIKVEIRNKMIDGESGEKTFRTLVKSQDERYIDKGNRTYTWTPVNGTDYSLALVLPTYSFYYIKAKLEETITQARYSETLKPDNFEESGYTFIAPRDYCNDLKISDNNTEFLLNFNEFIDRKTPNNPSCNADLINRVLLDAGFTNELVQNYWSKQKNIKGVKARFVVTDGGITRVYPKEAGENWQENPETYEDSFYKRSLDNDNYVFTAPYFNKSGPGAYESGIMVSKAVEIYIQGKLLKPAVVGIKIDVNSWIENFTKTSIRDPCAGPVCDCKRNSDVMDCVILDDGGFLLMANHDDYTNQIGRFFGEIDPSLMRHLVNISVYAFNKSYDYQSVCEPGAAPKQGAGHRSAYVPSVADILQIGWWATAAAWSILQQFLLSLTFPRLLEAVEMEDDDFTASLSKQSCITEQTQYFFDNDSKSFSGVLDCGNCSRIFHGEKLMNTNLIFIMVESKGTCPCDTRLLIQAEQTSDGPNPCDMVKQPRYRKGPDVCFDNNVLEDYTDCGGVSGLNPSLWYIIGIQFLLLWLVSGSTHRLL
T1 sequence (P54289 957-1103): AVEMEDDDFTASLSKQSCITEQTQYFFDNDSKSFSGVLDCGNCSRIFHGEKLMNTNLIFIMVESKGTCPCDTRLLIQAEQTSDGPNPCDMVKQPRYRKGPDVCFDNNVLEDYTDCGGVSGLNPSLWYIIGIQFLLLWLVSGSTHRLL

Compound: NC[C@@]1(CC(=O)O)C[C@H]2CC[C@H]2C1 [PD-217,014]
- visceral analgesic effects, potency and efficacy compared with gabapentin [1]: higher potency and efficacy than gabapentin

Compound: O=C(O)CN(CCN(CC(=O)O)CC(=O)O)CC(=O)O [EDTA]
- effect on MMP-related gelatinolytic bands [2]: repressed all of the MMP-related gelatinolytic bands

Compound: ENPVVHFFKNIVTPRTPPPSQ (synthetic wild-type (MBP84-104-WT)) [synthetic algesic myelin basic protein-derived peptide, region 84-104 of human MBP]
- mechanical allodynia after injection (female rats): causes a robust and long-lasting mechanical allodynia
